Measured values published in PubChem BioAssay (NCI).
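GI50 = concentration required for 50% inhibition of growth. TGI denotes the concentration required for complete inhibition of growth.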

Experiments:
Experiment in all cases: DTP human tumour cell line panel, 384-well format
786-0 renal = tested on: 786-0 renal
A549 NSCLC = tested on: A549 NSCLC
ACHN renal = tested on: ACHN renal
BT-549 breast = tested on: BT-549 breast
CCRF-CEM leukemia = tested on: CCRF-CEM leukemia
COLO 205 colon = tested on: COLO 205 colon
HCC-2998 colon = tested on: HCC-2998 colon
HCT-116 colon = tested on: HCT-116 colon
HCT-15 colon = tested on: HCT-15 colon
HL-60(TB) leukemia = tested on: HL-60(TB) leukemia
HOP-62 NSCLC = tested on: HOP-62 NSCLC
HT29 colon = tested on: HT29 colon
IGROV1 ovarian = tested on: IGROV1 ovarian
K-562 leukemia = tested on: K-562 leukemia
KM12 colon = tested on: KM12 colon
LOX IMVI melanoma = tested on: LOX IMVI melanoma
M14 melanoma = tested on: M14 melanoma
MALME-3M melanoma = tested on: MALME-3M melanoma
MCF7 breast = tested on: MCF7 breast
MDA-MB-231 breast = tested on: MDA-MB-231 breast
MDA-MB-435 melanoma = tested on: MDA-MB-435 melanoma
MDA-MB-468 breast = tested on: MDA-MB-468 breast
MOLT-4 leukemia = tested on: MOLT-4 leukemia
NCI-H23 lung = tested on: NCI-H23 lung
NCI-H322M lung = tested on: NCI-H322M lung
NCI-H460 NSCLC = tested on: NCI-H460 NSCLC
NCI-H522 lung = tested on: NCI-H522 lung
OVCAR-3 ovarian = tested on: OVCAR-3 ovarian
OVCAR-8 ovarian = tested on: OVCAR-8 ovarian
PC-3 prostate = tested on: PC-3 prostate
RPMI-8226 leukemia = tested on: RPMI-8226 leukemia
RXF 393 renal = tested on: RXF 393 renal
SF-268 CNS = tested on: SF-268 CNS
SF-295 CNS = tested on: SF-295 CNS
SF-539 CNS = tested on: SF-539 CNS
SK-MEL-2 melanoma = tested on: SK-MEL-2 melanoma
SK-MEL-28 melanoma = tested on: SK-MEL-28 melanoma
SK-MEL-5 melanoma = tested on: SK-MEL-5 melanoma
SK-OV-3 ovarian = tested on: SK-OV-3 ovarian
SN12C renal = tested on: SN12C renal
SNB-19 CNS = tested on: SNB-19 CNS
SR leukemia = tested on: SR leukemia
SW-620 colon = tested on: SW-620 colon
TK-10 renal = tested on: TK-10 renal
U251 glioblastoma = tested on: U251 glioblastoma
UACC-257 melanoma = tested on: UACC-257 melanoma
UACC-62 melanoma = tested on: UACC-62 melanoma
UO-31 renal = tested on: UO-31 renal

For `CN(C)C/C=C/C(=O)Nc1ccc(C(=O)N2CCC[C@@H](Nc3ncc(Cl)c(-c4c[nH]c5ccccc45)n3)C2)cc1`, the GI50 ([…]-0 renal) was 241 nM, the TGI (786-0 renal) was 683 nM and the GI50 (A549 NSCLC) was 294 nM. The TGI (A549 NSCLC) was 967 nM, the GI50 (ACHN renal) was 1890 nM and the TGI (ACHN renal) was 11200 nM. For the same molecule, the GI50 (BT-549 breast) was 16.4 nM, the TGI (BT-549 breast) was 37.6 nM and the GI50 (CCRF-CEM leukemia) was 28 nM. For the same molecule, the TGI (CCRF-CEM leukemia) was 74.5 nM, the GI50 (COLO 205 colon) was 19 nM and the TGI (COLO 205 colon) was 42.9 nM. For the same molecule, the GI50 (HCC-2998 colon) was 17.8 nM, the TGI (HCC-2998 colon) was 38.1 nM and the GI50 (HCT-116 colon) was 31 nM. It also gave a TGI (HCT-116 colon) of 1170 nM, a GI50 (HCT-15 colon) of 3050 nM and a TGI (HCT-15 colon) of 9820 nM. It also gave a GI50 (HL-60(TB) leukemia) of 22.7 nM, a TGI (HL-60(TB) leukemia) of 37.4 nM and a GI50 (HOP-62 NSCLC) of 159 nM. The TGI (HOP-62 NSCLC) was 581 nM, the GI50 (HT29 colon) was 165 nM and the TGI (HT29 colon) was 478 nM. It also gave a GI50 (IGROV1 ovarian) of 22.9 nM, a TGI (IGROV1 ovarian) of 69.5 nM and a GI50 (K-562 leukemia) of 39.7 nM. The TGI (K-562 leukemia) was 840 nM, the GI50 (KM12 colon) was 34.7 nM and the TGI (KM12 colon) was 160 nM. The GI50 (LOX IMVI melanoma) was 25.6 nM, the TGI (LOX IMVI melanoma) was 48 nM and the GI50 (M14 melanoma) was 106 nM. For the same molecule, the TGI (M14 melanoma) was 279 nM, the GI50 (MALME-3M melanoma) was 19.6 nM and the TGI (MALME-3M melanoma) was 39.4 nM. For the same molecule, the GI50 (MCF7 breast) was 26.6 nM, the TGI (MCF7 breast) was 1290 nM and the GI50 (MDA-MB-231 breast) was 25.4 nM. It also gave a TGI (MDA-MB-231 breast) of 72.3 nM, a GI50 (MDA-MB-435 melanoma) of 27 nM and a TGI (MDA-MB-435 melanoma) of 90.4 nM. It also gave a GI50 (MDA-MB-468 breast) of 17.7 nM, a TGI (MDA-MB-468 breast) of 33.7 nM and a GI50 (MOLT-4 leukemia) of 21.6 nM. The TGI (MOLT-4 leukemia) was 42.9 nM, the GI50 (NCI-H23 lung) was 27.4 nM and the TGI (NCI-H23 lung) was 117 nM. It also gave a GI50 (NCI-H322M lung) of 27.4 nM, a TGI (NCI-H322M lung) of 67.8 nM and a GI50 (NCI-H460 NSCLC) of 184 nM. It also gave a TGI (NCI-H460 NSCLC) of 424 nM, a GI50 (NCI-H522 lung) of 19 nM and a TGI (NCI-H522 lung) of 36.3 nM. The GI50 (OVCAR-3 ovarian) was 18 nM, the TGI (OVCAR-3 ovarian) was 38.2 nM and the GI50 (OVCAR-8 ovarian) was 149 nM. The TGI (OVCAR-8 ovarian) was 398 nM, the GI50 (PC-3 prostate) was 46.3 nM and the TGI (PC-3 prostate) was 371 nM. It also gave a GI50 (RPMI-8226 leukemia) of 151 nM, a TGI (RPMI-8226 leukemia) of 285 nM and a GI50 (RXF 393 renal) of 24.5 nM. The TGI (RXF 393 renal) was 77.7 nM, the GI50 (SF-268 CNS) was 20.5 nM and the TGI (SF-268 CNS) was 44.7 nM. It also gave a GI50 (SF-295 CNS) of 274 nM, a TGI (SF-295 CNS) of 767 nM and a GI50 (SF-539 CNS) of 20.1 nM. The TGI (SF-539 CNS) was 43.6 nM, the GI50 (SK-MEL-2 melanoma) was 19.9 nM and the TGI (SK-MEL-2 melanoma) was 48.8 nM. The GI50 (SK-MEL-28 melanoma) was 20.8 nM, the TGI (SK-MEL-28 melanoma) was 48 nM and the GI50 (SK-MEL-5 melanoma) was 28.3 nM. It also gave a TGI (SK-MEL-5 melanoma) of 135 nM, a GI50 (SK-OV-3 ovarian) of 38.6 nM and a TGI (SK-OV-3 ovarian) of 352 nM. The GI50 (SN12C renal) was 46.8 nM, the TGI (SN12C renal) was 222 nM and the GI50 (SNB-19 CNS) was 33.3 nM. It also gave a TGI (SNB-19 CNS) of 1420 nM, a GI50 (SR leukemia) of 16.4 nM and a TGI (SR leukemia) of 30.3 nM. It also gave a GI50 (SW-620 colon) of 71.4 nM, a TGI (SW-620 colon) of 410 nM and a GI50 (TK-10 renal) of 389 nM. For the same molecule, the TGI (TK-10 renal) was 14700 nM, the GI50 (U251 glioblastoma) was 48.2 nM and the TGI (U251 glioblastoma) was 399 nM. For the same molecule, the GI50 (UACC-257 melanoma) was 41.9 nM, the TGI (UACC-257 melanoma) was 197 nM and the GI50 (UACC-62 melanoma) was 92.7 nM. The TGI (UACC-62 melanoma) was 321 nM, the GI50 (UO-31 renal) was 2190 nM and the TGI (UO-31 renal) was 5380 nM.
